Assay results reported in paper PMC10435442, “Developing multitarget coumarin based anti-breast cancer agents: synthesis and molecular modeling study” (Scientific Reports, 2023).
Converted amounts (≈) assume the structure as drawn. Where two headings read alike, the source gives them in different places.

Key:
[1] = in vitro; settings: human, MCF-10A cells (nonmalignant breast)
[2] = system: MCF-10A; assay: MTT cytotoxicity assay, nonmalignant MCF-10A; settings: read-out: MCF-10A IC50; MTT, nonmalignant MCF-10A;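 also: MTT assay with absorbance read at 570 nm after 48 h exposure of cells to serial compound concentrations at 37 °C, testing selectivity against nonmalignant versus cancer cells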
[3] = system: MCF-7; assay: MTT cytotoxicity assay, MCF-7; settings: for IC50: Homo sapiens; for anti-proliferative activity against MCF-7 (in words): SAR discussion
[4] = target: EGFR (Homo sapiens, UniProt P00533); assay: In vitro EGFR enzyme inhibition assay (ELISA); settings: for EGFR %inh: lab report 01-11-2021
[5] = system: MDA-MB-231; assay: MTT cytotoxicity assay, MDA-MB-231; settings: for IC50: Homo sapiens; for % viability: MDA; for anti-proliferative activity against MDA-MB-231 (in words): SAR discussion
[6] = MCF7, read-out: cytotoxicity_IC50 mcf7
[7] = EGFR IC50, lab report 01-11-2021, 10 compounds
[8] = MDA-MB-231, read-out: MDA-MBA-231 IC50
[9] = MDA-MB-231, read-out: cytotoxicity_IC50 MDA

EGFR, sequence (P00533 25-1210): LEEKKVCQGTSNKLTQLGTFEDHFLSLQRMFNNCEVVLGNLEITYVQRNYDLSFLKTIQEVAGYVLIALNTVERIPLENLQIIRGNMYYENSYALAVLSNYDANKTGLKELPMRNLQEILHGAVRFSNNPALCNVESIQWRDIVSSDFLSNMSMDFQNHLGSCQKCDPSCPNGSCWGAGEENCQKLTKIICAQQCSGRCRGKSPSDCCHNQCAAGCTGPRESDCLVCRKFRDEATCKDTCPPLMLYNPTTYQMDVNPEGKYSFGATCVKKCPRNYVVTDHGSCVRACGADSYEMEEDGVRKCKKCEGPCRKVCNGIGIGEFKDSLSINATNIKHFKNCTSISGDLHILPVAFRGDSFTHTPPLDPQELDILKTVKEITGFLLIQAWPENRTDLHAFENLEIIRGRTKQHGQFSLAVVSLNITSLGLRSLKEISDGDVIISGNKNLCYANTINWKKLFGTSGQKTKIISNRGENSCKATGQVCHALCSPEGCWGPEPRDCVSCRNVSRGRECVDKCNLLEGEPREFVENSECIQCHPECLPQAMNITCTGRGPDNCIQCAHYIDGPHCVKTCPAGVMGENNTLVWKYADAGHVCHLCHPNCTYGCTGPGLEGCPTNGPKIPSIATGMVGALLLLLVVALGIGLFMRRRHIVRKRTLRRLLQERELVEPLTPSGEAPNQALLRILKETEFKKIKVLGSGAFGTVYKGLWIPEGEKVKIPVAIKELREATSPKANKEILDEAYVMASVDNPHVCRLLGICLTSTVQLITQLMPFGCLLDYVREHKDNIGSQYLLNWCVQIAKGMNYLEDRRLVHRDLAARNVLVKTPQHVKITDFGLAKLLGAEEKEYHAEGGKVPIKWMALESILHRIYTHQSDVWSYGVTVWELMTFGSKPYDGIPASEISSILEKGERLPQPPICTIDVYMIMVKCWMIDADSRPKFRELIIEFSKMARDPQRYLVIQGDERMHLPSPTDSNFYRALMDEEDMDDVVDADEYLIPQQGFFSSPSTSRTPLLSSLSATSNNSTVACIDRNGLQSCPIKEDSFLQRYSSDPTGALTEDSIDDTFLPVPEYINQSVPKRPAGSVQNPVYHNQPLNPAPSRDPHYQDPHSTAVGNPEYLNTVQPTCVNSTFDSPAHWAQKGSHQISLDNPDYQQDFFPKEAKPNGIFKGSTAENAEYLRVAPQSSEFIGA

O=C(COc1ccc2c(COC(=O)c3ccccc3)cc(=O)oc2c1)c1ccccc1 [Compound 7, [2-Oxo-7-(2-oxo-2-phenylethoxy)-2H-chromen-4-yl]methyl benzoate] gave an IC50 at 48 h [1] of 41.9 ± 2.04 µg/mL (≈ 101 µM), a viability at 48 h, 0.4 ug [1] of 78.3% and a viability at 48 h, 1.6 ug [1] of 71.5%. It also gave a viability at 48 h, 6.25 ug [1] of 59.2%, a viability at 48 h, 25 ug [1] of 53.7% and a viability at 48 h, 100 ug [1] of 45.1%. The IC50 [2] was 101 ± 2.04 µM, the IC50 ([3]; MCF7, read-out: MCF-7 IC50) was 77.5 ± 1.94 µM and the IC50 [3, 6] was 32.1 ± 1.94 µg/mL. For the same molecule, the “% viability” value ([3]; MCF7, 0.4ug) was 83.43%, the “% viability” value ([3]; MCF7, 1.6ug) was 71.93% and the “% viability” value ([3]; MCF7, 6.3ug) was 62.508%. For the same molecule, the “% viability” value ([3]; MCF7, 25ug) was 52.7829%, the “% viability” value ([3]; MCF7, 100ug) was 40.856% and the “anti-proliferative activity against MCF-7 (in words)” value [3] was “diminished the activity”. It also gave an IC50 [4, 7] of 0.333 µM, an IC50 ([4]; EGFR inhibition IC50) of 0.341 ± 0.019 µM and an EGFR %inh ([4]; conc 0.01 (unit not given)) of 30%. It also gave an EGFR %inh ([4]; conc 0.1 (unit not given)) of 42%, an EGFR %inh ([4]; conc 1 (unit not given)) of 67% and an EGFR %inh ([4]; conc 10 (unit not given)) of 89%. For the same molecule, the “Percentage above Reference IC50 (potency relative to erlotinib)” value ([4]; reference Erlotinib) was 24.633%, the IC50 [5, 8] was 56.7 ± 1.28 µM and the IC50 [5, 9] was 23.5 ± 1.28 µg/mL. For the same molecule, the “% viability” value ([5]; 0.4ug (log conc. -0.41)) was 75.96%, the “% viability” value ([5]; 1.6ug (log conc. 0.19)) was 68.64% and the “% viability” value ([5]; 6.25ug (log conc. 0.8)) was 59.243%. The “% viability” value ([5]; 100ug (log conc. 2)) was 38.991% and the “anti-proliferative activity against MDA-MB-231 (in words)” value [5] was “poor anti-proliferative activity”.
With O=C(COc1ccc2c(COC(=O)c3ccc(Cl)cc3)cc(=O)oc2c1)c1ccccc1 [Compound 9, [2-Oxo-7-(2-oxo-2-phenylethoxy)-2H-chromen-4-yl]methyl 4-chlorobenzoate] the IC50 at 48 h [1] was 135 ± 6.56 µg/mL (≈ 301 µM), the viability at 48 h, 0.4 ug [1] was 90.6% and the viability at 48 h, 1.6 ug [1] was 79.6%. For the same molecule, the viability at 48 h, 6.25 ug [1] was 70.3%, the viability at 48 h, 25 ug [1] was 61.8% and the viability at 48 h, 100 ug [1] was 52.3%. For the same molecule, the IC50 [2] was 301 ± 6.56 µM, the IC50 ([3]; MCF7, read-out: MCF-7 IC50) was 100 ± 2.73 µM and the IC50 [3, 6] was 45 ± 2.73 µg/mL. The “% viability” value ([3]; MCF7, 0.4ug) was 77.17%, the “% viability” value ([3]; MCF7, 1.6ug) was 70.74% and the “% viability” value ([3]; MCF7, 6.3ug) was 62.232%. The “% viability” value ([3]; MCF7, 25ug) was 54.2277%, the “% viability” value ([3]; MCF7, 100ug) was 44.25% and the “anti-proliferative activity against MCF-7 (in words)” value [3] was “diminished the activity”. For the same molecule, the IC50 [4, 7] was 0.131 µM, the IC50 ([4]; EGFR inhibition IC50) was 0.131 ± 0.009 µM and the “Percentage above Reference IC50 (potency relative to erlotinib)” value ([4]; reference Erlotinib) was 64.122%. The IC50 [5, 8] was 10.4 ± 0.25 µM, the IC50 [5, 9] was 4.65 ± 0.25 µg/mL and the “anti-proliferative activity against MDA-MB-231 (in words)” value [5] was “poor anti-proliferative activity”.
With COc1ccccc1C(=O)OCc1cc(=O)oc2cc(OCC(=O)c3ccccc3)ccc12 [Compound 11, [2-Oxo-7-(2-oxo-2-phenylethoxy)-2H-chromen-4-yl]methyl 2-methoxybenzoate] the IC50 at 48 h [1] was 79.2 ± 3.86 µg/mL (≈ 178 µM), the viability at 48 h, 0.4 ug [1] was 84.2% and the viability at 48 h, 1.6 ug [1] was 76.6%. The viability at 48 h, 6.25 ug [1] was 66.5%, the viability at 48 h, 25 ug [1] was 58.4% and the viability at 48 h, 100 ug [1] was 47.8%. The IC50 [2] was 178 ± 3.86 µM, the IC50 ([3]; MCF7, read-out: MCF-7 IC50) was 131 ± 3.52 µM and the IC50 [3, 6] was 58.1 ± 3.52 µg/mL. For the same molecule, the “% viability” value ([3]; MCF7, 0.4ug) was 86.03%, the “% viability” value ([3]; MCF7, 1.6ug) was 75.27% and the “% viability” value ([3]; MCF7, 6.3ug) was 65.137%. The “% viability” value ([3]; MCF7, 25ug) was 57.0548%, the “% viability” value ([3]; MCF7, 100ug) was 45.822% and the “anti-proliferative activity against MCF-7 (in words)” value [3] was “diminished the activity”. It also gave an IC50 ([4]; EGFR IC50, lab report 01-09-2021, 04 compounds, reference Erlotinib) of 1.83 µM, an IC50 ([4]; EGFR inhibition IC50) of 1.83 ± 0.038 µM and an inhibition at 10 pg/mL ([4]; read-out: EGFR %inh) of 7.8%. It also gave an inhibition at 0.0001 µg/mL ([4]; read-out: EGFR %inh) of 23%, an inhibition at 0.001 µg/mL ([4]; read-out: EGFR %inh) of 54% and an inhibition at 0.01 µg/mL ([4]; read-out: EGFR %inh) of 76%. The “Percentage above Reference IC50 (potency relative to erlotinib)” value ([4]; reference Erlotinib) was 7.91%, the IC50 [5, 8] was 61.2 ± 1.48 µM and the IC50 [5, 9] was 27.2 ± 1.48 µg/mL. The “% viability” value ([5]; 0.4ug (log conc. -0.41)) was 73.69%, the “% viability” value ([5]; 1.6ug (log conc. 0.19)) was 66.71% and the “% viability” value ([5]; 6.25ug (log conc. 0.8)) was 58.055%. For the same molecule, the “% viability” value ([5]; 25ug (log conc. 1.4)) was 52.2673%, the “% viability” value ([5]; 100ug (log conc. 2)) was 41.289% and the “anti-proliferative activity against MDA-MB-231 (in words)” value [5] was “poor anti-proliferative activity”.
